Laboratory results from the kinase profiling compilation of Christmann-Franck et al. (2016).

Tests used:
Experiment in all cases: KINOMEscan competition binding
Conditions in all cases: compound 10.0 µM
[1] = target: IGF1R (human) (UniProt P08069)
[2] = target: CDK9 (human) (UniProt P50750)
[3] = target: CDK15 (human) (UniProt Q96Q40)
[4] = target: DCLK1 (human) (UniProt O15075)
[5] = target: FGR (human) (UniProt P09769)
[6] = target: CAMK4 (human) (UniProt Q16566)
[7] = target: RPS6KA6 KD2 (human) (UniProt Q9UK32)
[8] = target: MINK1 (human) (UniProt Q8N4C8)
[9] = target: NEK5 (human) (UniProt Q6P3R8)
[10] = target: STK3 (human) (UniProt Q13188)
[11] = target: TAOK2 (human) (UniProt Q9UL54)
Chain of TAOK2 (human) (Q9UL54 whole entry, looked up): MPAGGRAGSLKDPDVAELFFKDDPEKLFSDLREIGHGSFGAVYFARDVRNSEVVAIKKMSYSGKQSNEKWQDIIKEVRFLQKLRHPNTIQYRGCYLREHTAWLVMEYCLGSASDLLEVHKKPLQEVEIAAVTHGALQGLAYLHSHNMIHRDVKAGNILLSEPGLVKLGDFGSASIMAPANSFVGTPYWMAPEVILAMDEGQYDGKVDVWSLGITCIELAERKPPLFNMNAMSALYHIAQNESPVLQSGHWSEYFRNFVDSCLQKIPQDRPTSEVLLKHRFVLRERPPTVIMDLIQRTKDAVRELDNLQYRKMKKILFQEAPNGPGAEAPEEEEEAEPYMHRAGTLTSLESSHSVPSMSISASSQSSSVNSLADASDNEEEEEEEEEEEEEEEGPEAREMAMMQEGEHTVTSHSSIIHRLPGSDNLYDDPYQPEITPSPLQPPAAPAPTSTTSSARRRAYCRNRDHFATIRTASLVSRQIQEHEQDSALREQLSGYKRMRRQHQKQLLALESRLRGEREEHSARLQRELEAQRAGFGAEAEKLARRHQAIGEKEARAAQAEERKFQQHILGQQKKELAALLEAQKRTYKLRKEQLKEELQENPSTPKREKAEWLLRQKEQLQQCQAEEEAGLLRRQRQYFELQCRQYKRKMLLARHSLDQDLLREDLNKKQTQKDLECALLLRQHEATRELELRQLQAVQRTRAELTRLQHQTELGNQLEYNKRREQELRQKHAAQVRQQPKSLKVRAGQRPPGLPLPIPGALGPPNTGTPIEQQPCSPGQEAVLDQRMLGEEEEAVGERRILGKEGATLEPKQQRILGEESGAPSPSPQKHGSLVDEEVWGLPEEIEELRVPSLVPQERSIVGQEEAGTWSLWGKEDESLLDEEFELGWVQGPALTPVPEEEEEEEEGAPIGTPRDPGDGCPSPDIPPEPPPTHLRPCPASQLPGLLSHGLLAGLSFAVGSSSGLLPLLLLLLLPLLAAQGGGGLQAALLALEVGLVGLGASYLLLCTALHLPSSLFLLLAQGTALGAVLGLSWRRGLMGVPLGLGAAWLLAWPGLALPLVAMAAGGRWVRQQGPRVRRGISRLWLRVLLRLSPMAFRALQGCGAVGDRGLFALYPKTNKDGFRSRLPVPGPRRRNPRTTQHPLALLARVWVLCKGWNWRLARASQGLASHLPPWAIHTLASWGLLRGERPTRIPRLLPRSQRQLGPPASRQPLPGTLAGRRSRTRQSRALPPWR

[12] = target: CAMK1G (human) (UniProt Q96NX5)
[13] = target: MARK2 (human) (UniProt Q7KZI7)
[14] = target: MAP2K1 (human) (UniProt Q02750)
[15] = target: TXK (human) (UniProt P42681)
Chain of TXK (human) (P42681 whole entry, looked up): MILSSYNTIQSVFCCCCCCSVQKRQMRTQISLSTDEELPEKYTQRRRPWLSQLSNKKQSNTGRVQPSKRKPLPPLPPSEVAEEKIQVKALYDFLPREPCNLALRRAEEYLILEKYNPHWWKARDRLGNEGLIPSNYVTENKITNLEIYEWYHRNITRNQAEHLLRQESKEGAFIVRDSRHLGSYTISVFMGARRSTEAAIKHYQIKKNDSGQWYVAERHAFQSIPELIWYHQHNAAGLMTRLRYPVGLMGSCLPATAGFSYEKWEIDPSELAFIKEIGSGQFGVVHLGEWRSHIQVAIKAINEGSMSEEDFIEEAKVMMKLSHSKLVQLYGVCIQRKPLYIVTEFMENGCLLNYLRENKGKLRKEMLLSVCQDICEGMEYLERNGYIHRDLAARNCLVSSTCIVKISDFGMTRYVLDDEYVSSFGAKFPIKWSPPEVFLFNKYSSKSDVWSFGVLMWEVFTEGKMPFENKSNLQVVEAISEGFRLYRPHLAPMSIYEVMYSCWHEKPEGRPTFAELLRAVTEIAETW

[16] = target: ULK2 (human) (UniProt Q8IYT8)
[17] = target: BMPR1B (human) (UniProt O00238)
[18] = target: CLK1 (human) (UniProt P49759)
Chain of CLK1 (human) (P49759 whole entry, looked up): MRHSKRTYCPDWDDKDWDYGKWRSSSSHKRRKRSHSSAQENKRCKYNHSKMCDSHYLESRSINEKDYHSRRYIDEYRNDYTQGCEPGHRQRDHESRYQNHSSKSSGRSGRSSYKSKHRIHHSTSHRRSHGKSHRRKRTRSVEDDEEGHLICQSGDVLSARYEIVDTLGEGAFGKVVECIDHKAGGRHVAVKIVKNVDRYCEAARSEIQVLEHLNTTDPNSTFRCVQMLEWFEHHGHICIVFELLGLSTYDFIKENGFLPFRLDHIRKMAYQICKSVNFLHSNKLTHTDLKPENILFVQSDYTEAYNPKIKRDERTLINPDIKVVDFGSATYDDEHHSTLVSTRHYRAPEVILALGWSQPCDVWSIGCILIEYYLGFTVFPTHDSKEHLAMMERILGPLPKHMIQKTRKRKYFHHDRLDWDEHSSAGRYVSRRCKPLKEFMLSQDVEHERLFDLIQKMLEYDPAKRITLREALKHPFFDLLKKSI

[19] = target: MAP3K7 (human) (UniProt O43318)
[20] = target: JAK1 JH1 catalytic (human) (UniProt P23458)
[21] = target: RPS6KA6 KD1 (human) (UniProt Q9UK32)
[22] = target: PI4KB (human) (UniProt Q9UBF8)
[23] = target: PTK2 (human) (UniProt Q05397)
[24] = target: NEK4 (human) (UniProt P51957)
[25] = target: SIK3 (human) (UniProt Q9Y2K2)
[26] = target: CDK18 (human) (UniProt Q07002)
[27] = target: STK32C (human) (UniProt Q86UX6)
[28] = target: TIE1 (human) (UniProt P35590)
[29] = target: PIM3 (human) (UniProt Q86V86)
[30] = target: CAMK2B (human) (UniProt Q13554)
[31] = target: PRKD2 (human) (UniProt Q9BZL6)
[32] = target: PLK4 (human) (UniProt O00444)
[33] = target: CAMK1D (human) (UniProt Q8IU85)
[34] = target: IKBKE (human) (UniProt Q14164)
[35] = target: CLK4 (human) (UniProt Q9HAZ1)
[36] = target: PKMYT1 (human) (UniProt Q99640)
[37] = target: SLK (human) (UniProt Q9H2G2)
Chain of SLK (human) (Q9H2G2 whole entry, looked up): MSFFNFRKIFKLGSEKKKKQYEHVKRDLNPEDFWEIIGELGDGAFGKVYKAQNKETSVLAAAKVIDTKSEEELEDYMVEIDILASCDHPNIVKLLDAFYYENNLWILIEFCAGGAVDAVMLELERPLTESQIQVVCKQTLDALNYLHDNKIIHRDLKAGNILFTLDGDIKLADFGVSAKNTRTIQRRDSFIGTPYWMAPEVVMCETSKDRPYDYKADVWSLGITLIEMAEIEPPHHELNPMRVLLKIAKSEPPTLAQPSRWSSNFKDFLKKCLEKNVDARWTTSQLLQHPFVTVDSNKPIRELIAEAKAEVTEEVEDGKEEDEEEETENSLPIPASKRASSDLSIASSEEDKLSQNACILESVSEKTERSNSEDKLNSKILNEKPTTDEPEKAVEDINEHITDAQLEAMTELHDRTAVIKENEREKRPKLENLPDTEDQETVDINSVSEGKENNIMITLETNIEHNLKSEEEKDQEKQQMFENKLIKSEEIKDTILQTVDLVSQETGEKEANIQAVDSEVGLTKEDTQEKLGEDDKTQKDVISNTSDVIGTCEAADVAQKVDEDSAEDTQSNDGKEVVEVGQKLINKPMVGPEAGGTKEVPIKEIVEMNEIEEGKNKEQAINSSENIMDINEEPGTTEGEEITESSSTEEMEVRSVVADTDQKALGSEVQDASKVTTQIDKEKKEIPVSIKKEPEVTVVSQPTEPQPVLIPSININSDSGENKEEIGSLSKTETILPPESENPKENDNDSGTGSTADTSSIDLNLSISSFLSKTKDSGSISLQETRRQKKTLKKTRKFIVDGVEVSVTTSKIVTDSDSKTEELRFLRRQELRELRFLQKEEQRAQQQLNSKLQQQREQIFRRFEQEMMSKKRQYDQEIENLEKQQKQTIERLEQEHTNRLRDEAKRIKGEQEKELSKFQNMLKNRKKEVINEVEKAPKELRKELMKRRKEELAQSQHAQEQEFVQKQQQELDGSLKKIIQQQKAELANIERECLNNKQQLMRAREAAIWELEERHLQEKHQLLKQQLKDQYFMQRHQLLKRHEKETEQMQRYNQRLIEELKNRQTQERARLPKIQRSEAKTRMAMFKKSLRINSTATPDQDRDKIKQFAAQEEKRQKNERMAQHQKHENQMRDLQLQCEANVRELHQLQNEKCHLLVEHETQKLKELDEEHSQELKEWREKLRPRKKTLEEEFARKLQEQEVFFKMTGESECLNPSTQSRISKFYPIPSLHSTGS

[38] = target: AURKC (human) (UniProt Q9UQB9)
[39] = target: TYK2 JH1 catalytic (human) (UniProt P29597)
[40] = target: CDKL1 (human) (UniProt Q00532)

Chain of IGF1R (human) (P08069 whole entry, looked up): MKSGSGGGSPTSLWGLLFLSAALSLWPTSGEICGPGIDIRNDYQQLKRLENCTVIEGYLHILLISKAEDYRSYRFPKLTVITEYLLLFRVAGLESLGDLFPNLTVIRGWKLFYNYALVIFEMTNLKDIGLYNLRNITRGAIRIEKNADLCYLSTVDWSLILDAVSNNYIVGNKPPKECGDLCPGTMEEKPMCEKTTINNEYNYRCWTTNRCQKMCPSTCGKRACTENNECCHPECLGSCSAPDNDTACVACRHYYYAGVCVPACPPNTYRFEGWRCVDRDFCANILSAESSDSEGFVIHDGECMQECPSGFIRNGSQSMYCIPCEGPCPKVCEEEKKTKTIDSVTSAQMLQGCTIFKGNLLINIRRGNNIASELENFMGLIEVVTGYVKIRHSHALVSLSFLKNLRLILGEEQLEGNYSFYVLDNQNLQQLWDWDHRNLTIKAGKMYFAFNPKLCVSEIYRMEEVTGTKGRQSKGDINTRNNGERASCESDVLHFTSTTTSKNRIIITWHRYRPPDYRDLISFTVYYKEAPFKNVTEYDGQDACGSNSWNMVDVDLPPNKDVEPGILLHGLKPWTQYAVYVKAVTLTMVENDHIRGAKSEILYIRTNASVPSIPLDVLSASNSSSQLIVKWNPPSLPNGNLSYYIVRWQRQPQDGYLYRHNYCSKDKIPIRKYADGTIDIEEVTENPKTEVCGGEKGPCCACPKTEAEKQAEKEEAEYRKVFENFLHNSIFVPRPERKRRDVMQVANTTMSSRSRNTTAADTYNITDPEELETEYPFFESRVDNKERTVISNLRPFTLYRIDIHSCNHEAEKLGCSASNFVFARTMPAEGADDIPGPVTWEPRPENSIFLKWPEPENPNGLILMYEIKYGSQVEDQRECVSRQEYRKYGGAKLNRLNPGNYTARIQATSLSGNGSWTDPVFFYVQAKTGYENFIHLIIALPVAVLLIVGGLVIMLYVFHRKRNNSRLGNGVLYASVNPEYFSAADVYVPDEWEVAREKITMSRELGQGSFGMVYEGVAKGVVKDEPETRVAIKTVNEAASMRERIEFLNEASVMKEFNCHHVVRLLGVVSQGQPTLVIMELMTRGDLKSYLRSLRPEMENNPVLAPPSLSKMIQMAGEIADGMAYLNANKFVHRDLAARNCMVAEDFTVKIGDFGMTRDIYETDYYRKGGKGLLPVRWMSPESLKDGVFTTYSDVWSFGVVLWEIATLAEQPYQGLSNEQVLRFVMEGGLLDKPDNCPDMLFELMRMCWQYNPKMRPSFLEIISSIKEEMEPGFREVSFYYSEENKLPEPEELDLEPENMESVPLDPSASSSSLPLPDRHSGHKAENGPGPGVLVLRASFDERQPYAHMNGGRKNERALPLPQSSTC

| SMILES | kinase still bound, per cent of control [1] [%] | kinase still bound, per cent of control [2] [%] | kinase still bound, per cent of control [3] [%] | kinase still bound, per cent of control [4] [%] | kinase still bound, per cent of control [5] [%] | kinase still bound, per cent of control [6] [%] | kinase still bound, per cent of control [7] [%] | kinase still bound, per cent of control [8] [%] | kinase still bound, per cent of control [9] [%] | kinase still bound, per cent of control [10] [%] | kinase still bound, per cent of control [11] [%] | kinase still bound, per cent of control [12] [%] | kinase still bound, per cent of control [13] [%] | kinase still bound, per cent of control [14] [%] | kinase still bound, per cent of control [15] [%] | kinase still bound, per cent of control [16] [%] | kinase still bound, per cent of control [17] [%] | kinase still bound, per cent of control [18] [%] | kinase still bound, per cent of control [19] [%] | kinase still bound, per cent of control [20] [%] | other results |
| --- | --- | --- | --- | --- | --- | --- | --- | --- | --- | --- | --- | --- | --- | --- | --- | --- | --- | --- | --- | --- | --- |
| CCN1CCN(Cc2ccc(NC(=O)c3ccc(C)c(/C=C/c4cnc5[nH]ccc5c4OC)c3)cc2C(F)(F)F)CC1 | 100 | 96 | 36 | 93 | 0.15 | 100 | 15 | 2.8 | 4.3 | 5.2 | 0.5 | 100 | 68 | 74 | 0.7 | 35 | 14 | 14 | 4.8 | 39 | kinase still bound, per cent of control [21]: 42%; kinase still bound, per cent of control [22]: 91%; kinase still bound, per cent of control [23]: 67%; kinase still bound, per cent of control [24]: 33%; kinase still bound, per cent of control [25]: 100%; kinase still bound, per cent of control [26]: 100%; kinase still bound, per cent of control [27]: 100%; kinase still bound, per cent of control [28]: 4.6%; kinase still bound, per cent of control [29]: 100%; kinase still bound, per cent of control [30]: 100%; kinase still bound, per cent of control [31]: 50%; kinase still bound, per cent of control [32]: 59%; kinase still bound, per cent of control [33]: 100%; kinase still bound, per cent of control [34]: 94%; kinase still bound, per cent of control [35]: 100%; kinase still bound, per cent of control [36]: 71%; kinase still bound, per cent of control [37]: 0.6%; kinase still bound, per cent of control [38]: 1.5%; kinase still bound, per cent of control [39]: 12%; kinase still bound, per cent of control [40]: 61% |
| COc1cc2ncnc(Nc3cccc(Cl)c3)c2cc1OC | 100 | 100 | 75 | 54 | 32 | 100 | 38 | 37 | 93 | 91 | 76 | 64 | 74 | 25 | 63 | 87 | 62 | 59 | 39 | 84 | kinase still bound, per cent of control [21]: 46%; kinase still bound, per cent of control [22]: 44%; kinase still bound, per cent of control [23]: 100%; kinase still bound, per cent of control [24]: 76%; kinase still bound, per cent of control [25]: 53%; kinase still bound, per cent of control [26]: 79%; kinase still bound, per cent of control [27]: 100%; kinase still bound, per cent of control [28]: 71%; kinase still bound, per cent of control [29]: 54%; kinase still bound, per cent of control [30]: 95%; kinase still bound, per cent of control [31]: 86%; kinase still bound, per cent of control [32]: 30%; kinase still bound, per cent of control [33]: 83%; kinase still bound, per cent of control [34]: 55%; kinase still bound, per cent of control [35]: 37%; kinase still bound, per cent of control [36]: 78%; kinase still bound, per cent of control [37]: 2%; kinase still bound, per cent of control [38]: 49%; kinase still bound, per cent of control [39]: 52%; kinase still bound, per cent of control [40]: 90% |
